Here are results for 17 compounds from paper PMC8998746, “Effect of Clinically Used Microtubule Targeting Drugs on Viral Infection and Transport Function” (International Journal of Molecular Sciences, 2022).

SMILES strings stand for the structures. Read-outs that look alike come from different tables or passages of the source.

Series [1] relates to Vero E6 cells. To be noted: African green monkey, 24 h.
In series [2] the test system is VSV-G-luc (vesicular stomatitis virus). It is filed as cell-based.
Series [3] deals with Huh-7 Lunet C3 cells. The following applies: human, 24 h.
In a further series the test system is ASFV BPP30GFP. It is filed as cell-based, African swine fever virus.
The subject of series [4] is Vero cells. To be noted: African green monkey, 24 h.
For series [5], the system named is Vero E6 cells. In words: Cell viability, CellTiter 96 assay, Vero E6. To be noted: Vero E6, 24 h treatment.
The test system of series [6] is KBP (kinesin) movement along MTs in AHRTG cells. As to the kind of experiment: In cell motility assay with kinesin binding peptide probe (KBP). It is filed as cell-based, human. The following applies: for KBP mean displacement, decrease / KBP mean velocity, decrease / KBP mean movement / proportion of transported particles (TM/CM), reduction: AHRTG cells, NOC 2.5 µM, PTX 10 µM; for KBP mean displacement, decrease / KBP mean velocity, decrease: vs control; for KBP mean movement / proportion of transported particles (TM/CM), reduction: vs untreated.

Series [7] deals with Vero cells. As to the kind of experiment: Cell viability, CellTiter 96 assay, Vero. To be noted: 24 h treatment.
The test system of series [8] is Huh-7 Lunet C3 cells. As to the kind of experiment: Cell viability, CellTiter 96 assay, Huh-7 Lunet C3. To be noted: Huh-7 Lunet C3, 24 h treatment, over 80% cell viability.
Series [9] relates to DBP (dynein) movement along MTs in AHRTG cells. In words: In cell motility assay with dynein binding peptide probe (DBP). It counts as cell-based, human. To be noted: for DBP mean displacement, decrease / DBP mean velocity, decrease / DBP mean movement / proportion of transported particles (TM/CM), reduction: NOC 2.5 µM, PTX 10 µM; for DBP mean displacement, decrease / DBP mean velocity, decrease: vs control; for DBP mean movement / proportion of transported particles (TM/CM), reduction: vs untreated.

For series [10], the system named is SARS-CoV-2 strain NL/2020. In words: microbe, parasite or virus in culture. It is filed as cell-based. The following applies: Severe acute respiratory syndrome coronavirus 2; A549-ACE2 cells, 1 h pretreatment, 48 h, optimal dose (PPT 100 nM); read-out: inhibition of SARS-CoV-2 infection.
For the next series, the system named is VACV vtag2GFP. It counts as cell-based, vaccinia virus.

As for `CC[C@]1(O)C[C@@H]2CN(CCc3c([nH]c4ccccc34)[C@@](C(=O)OC)(c3cc4c(cc3OC)N(C)[C@H]3[C@@](O)(C(N)=O)[C@H](O)[C@]5(CC)C=CCN6CC[C@]43[C@@H]65)C2)C1` [VDS, vindesine], the figures for the highest non-toxic concentration in the series with Vero E6 cells [1], with Huh-7 Lunet C3 cells [3] and in the series with Vero cells [4] were 100 nM, 0.02 nM and 100 nM, respectively. Besides, the “decrease of VSV infection” value in series [2] was 80%. For the same compound, the “inhibition of ASFV early infection (BPP30GFP)” value (“inhibition … (BPP30GFP)” below) in the series on ASFV BPP30GFP is listed as “up to 50%”.
Take `COc1cc2cc(c1Cl)N(C)C(=O)C[C@H](OC(=O)[C@H](C)N(C)C(C)=O)[C@]1(C)O[C@H]1[C@H](C)[C@@H]1C[C@@](O)(NC(=O)O1)[C@H](OC)/C=C/C=C(\C)C2` [MAYT, maytansine]: the results for the highest non-toxic concentration in the series with Vero E6 cells [5], in the series with Vero cells [7] and in the series with Huh-7 Lunet C3 cells [8] were 25 nM, 25 nM and 0.1 nM, respectively. Further, the “effect on KBP movement (TM/CM ratio)” value in series [6] was “significant reduction of the TM/CM ratio”. Moreover, the “decrease of VSV infection” value in [2] is 40%.
Consider `CC(=O)O[C@@]12CO[C@@H]1C[C@H](O)[C@@]1(C)C(=O)[C@H](O)C3=C(C)[C@@H](OC(=O)[C@H](O)[C@@H](NC(=O)OC(C)(C)C)c4ccccc4)C[C@@](O)([C@@H](OC(=O)c4ccccc4)[C@H]21)C3(C)C` [DTX, docetaxel], for which the highest non-toxic concentration in the series with Vero E6 cells [5] is given as 10 nM; in the series on Vero cells [7] it was 10 nM; in the series on Huh-7 Lunet C3 cells [8] it was 0.03 nM.
In the case of `COC(=O)Nc1nc2ccc(C(=O)c3ccccc3)cc2[nH]1` [MBZ, mebendazole], the “concentration at which the DBP TM/CM ratio was affected” value in [9] (dose-response 0.1-10 μM MBZ) is above 2.5 µM. Also, the values for the highest non-toxic concentration in the series with Vero E6 cells [1], in the series on Huh-7 Lunet C3 cells [3] and in the series on Vero cells [4] were 10 nM, 5 nM and 10 nM, respectively.
For the compound `CO[C@H]1C(=O)[C@]2(C)[C@@H](OC)C[C@H]3OC[C@@]3(OC(C)=O)[C@H]2[C@H](OC(=O)c2ccccc2)[C@]2(O)C[C@H](OC(=O)[C@H](O)[C@@H](NC(=O)OC(C)(C)C)c3ccccc3)C(C)=C1C2(C)C` [CTX, cabazitaxel], the highest non-toxic concentration in the series with Vero E6 cells [5] amounted to 25 nM; in the series on Vero cells [7], 10 nM; in the series with Huh-7 Lunet C3 cells [8], 0.01 nM. Besides, in series [6], the “effect on KBP movement (TM/CM ratio)” value is “affected particle motion”.
As for `CC[C@]1(O)C[C@@H]2CN(CCc3c([nH]c4ccccc34)[C@@](C(=O)OC)(c3cc4c(cc3OC)N(C)[C@H]3[C@@](O)(C(=O)OC)[C@H](OC(C)=O)[C@]5(CC)C=CCN6CC[C@]43[C@@H]65)C2)C1` [VBL, vinblastine], the highest non-toxic concentration with Vero E6 cells [1] stood at 5 nM; in the series on Huh-7 Lunet C3 cells [3], 0.05 nM; in the series with Vero cells [4], 25 nM. Moreover, the “decrease of VSV infection” value in [2] came out at 90%. Moreover, in the series with ASFV BPP30GFP, the “inhibition … (BPP30GFP)” value is on record as “up to 50%”.
In the case of `COc1cc([C@@H]2c3cc4c(cc3[C@H](O)[C@H]3COC(=O)[C@H]23)OCO4)cc(OC)c1OC` [PPT, podophylotoxin], the highest non-toxic concentration in the series with Vero E6 cells [5] is on record as 50 nM; in the series on Vero cells [7], 50 nM; in the series with Huh-7 Lunet C3 cells [8] it was 0.2 nM. Further, in [10], the inhibition (commonly the share of the control response that was lost under treatment) at 0.1 µM came out at 60%.
`C/C(=C\c1csc(C)n1)[C@@H]1C[C@@H]2O[C@]2(C)CCC[C@H](C)[C@H](O)[C@@H](C)C(=O)C(C)(C)[C@@H](O)CC(=O)N1` [EPO, ixabepilone]: the highest non-toxic concentration in the series with Vero E6 cells [1] is listed as 25 nM; in the series with Huh-7 Lunet C3 cells [3], 0.05 nM; in the series with Vero cells [4], 25 nM.
`COc1cc2c(c(OC)c1OC)-c1ccc(OC)c(=O)cc1[C@@H](NC(C)=O)CC2` [COL, colchicine]: the highest non-toxic concentration with Vero E6 cells [5] turned out to be 25 nM; in the series on Vero cells [7], 75 nM; with Huh-7 Lunet C3 cells [8], 0.2 nM.
On to `CC(=O)O[C@H]1C(=O)[C@@]2(C)[C@H]([C@H](OC(=O)c3ccccc3)[C@]3(O)C[C@H](OC(=O)[C@H](O)[C@@H](NC(=O)c4ccccc4)c4ccccc4)C(C)=C1C3(C)C)[C@]1(OC(C)=O)CO[C@@H]1C[C@@H]2O` [PTX, paclitaxel], for which, in [6], the “effect on KBP particle displacement” value is reported as “significantly decreased the displacement of particles”; the “KBP mean displacement, decrease” value came out at 16%; the “KBP mean velocity, decrease” value is reported as “no meaningful changes”; the “KBP mean movement / proportion of transported particles (TM/CM), reduction” value is given as 17%. In [9], the “DBP mean displacement, decrease” value is “no alterations”; the “DBP mean velocity, decrease” value is “no alterations”; the “DBP mean movement / proportion of transported particles (TM/CM), reduction” value is 27%. The compound also had a highest non-toxic concentration in the series with Vero E6 cells [1] of 25 nM. In the series on Huh-7 Lunet C3 cells [3], the highest non-toxic concentration amounted to 5 nM. Besides, the highest non-toxic concentration in the series with Vero cells [4] is given as 25 nM.
`CCCSc1ccc2nc(NC(=O)OC)[nH]c2c1` [ABZ, albendazole] yielded a highest non-toxic concentration with Vero E6 cells [5] of 25 nM. In addition, in [6], the “effect on KBP movement (TM/CM ratio)” value is reported as “very low effect on motion”, the “effect on KBP particle displacement” value is “no significant modification” and the “effect on KBP particle velocity” value is reported as “no significant modification”. Further, the highest non-toxic concentration in the series on Vero cells [7] is listed as 25 nM. Further, the highest non-toxic concentration with Huh-7 Lunet C3 cells [8] is listed as 1 nM.
As for `COC(=O)Nc1nc2ccc(C(=O)c3cccs3)cc2[nH]1` [NOC, nocodazole], in [6], the “KBP mean displacement, decrease” value was 54%; the “KBP mean velocity, decrease” value is on record as 36%; the “KBP mean movement / proportion of transported particles (TM/CM), reduction” value was determined as 68%. In addition, in series [9], the “DBP mean displacement, decrease” value is 44%; the “DBP mean velocity, decrease” value was determined as 30%; the “DBP mean movement / proportion of transported particles (TM/CM), reduction” value worked out at 60%.
Take `C=C1C[C@@H]2CC[C@@]34C[C@H]5O[C@H]6[C@@H](O3)[C@H]3O[C@H](CC[C@@H]3O[C@H]6[C@H]5O4)CC(=O)C[C@@H]3[C@@H](OC)[C@@H](C[C@H](O)CN)O[C@H]3C[C@H]3O[C@@H](CC[C@@H]1O2)C[C@@H](C)C3=C` [ERIB, eribulin]: the values for the highest non-toxic concentration in the series on Vero E6 cells [1], with Huh-7 Lunet C3 cells [3] and with Vero cells [4] were 10 nM, 0.01 nM and 100 nM, respectively. For the same compound, the “inhibition … (BPP30GFP)” value in the series on ASFV BPP30GFP is “up to 50%”.
As for `CC[C@]1(O)C[C@H]2CN(CCc3c([nH]c4ccccc34)[C@@](C(=O)OC)(c3cc4c(cc3OC)N(C=O)[C@H]3[C@@](O)(C(=O)OC)[C@H](OC(C)=O)[C@]5(CC)C=CCN6CC[C@]43[C@@H]65)C2)C1` [VCR, vincristine], the highest non-toxic concentration in the series with Vero E6 cells [1] was found to be 1 nM; in the series with Huh-7 Lunet C3 cells [3] it was 5 nM; with Vero cells [4] it was 1 nM.
Take `COC(=O)Nc1nc2ccc(Sc3ccccc3)cc2[nH]1` [FBZ, febendazole]: the highest non-toxic concentration in the series on Vero E6 cells [1] worked out at 50 nM; with Huh-7 Lunet C3 cells [3] it was 1 nM; with Vero cells [4], 75 nM. For the same compound, in the series on VACV vtag2GFP, the “reduction of VACV (vtag2GFP) viral infection” value is reported as 40%. In addition, the “inhibition … (BPP30GFP)” value with ASFV BPP30GFP was found to be 30%.
Consider `COc1ccc2c(c1OC)C(=O)O[C@@H]2[C@H]1c2c(cc3c(c2OC)OCO3)CCN1C` [NOS, noscapine], for which the “effect on KBP movement (TM/CM ratio)” value in series [6] is “no effect on KBP movement”. Moreover, the highest non-toxic concentration in the series with Vero E6 cells [1], with Huh-7 Lunet C3 cells [3] and in the series on Vero cells [4] was 100 nM throughout.
For the compound `CC(C)(C)c1[nH]cnc1/C=c1\[nH]c(=O)/c(=C/c2ccccc2)[nH]c1=O` [PLIN, plinabulin], the values for the highest non-toxic concentration with Vero E6 cells [5], with Vero cells [7] and in the series with Huh-7 Lunet C3 cells [8] were 25 nM, 25 nM and 0.5 nM, respectively. Besides, the “reduction of VACV (vtag2GFP) viral infection” value in the series on VACV vtag2GFP was 50%. For the same compound, the “inhibition … (BPP30GFP)” value in the series with ASFV BPP30GFP is 30%.
